Experimental data: PubChem BioAssay (NCI)
“And” between values parts separate entries of the source, which are not always exact repeats. Equal values may be shown once.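 Each compound was tested at five concentrations against cells in 96-well plates for 48 hours. The concentration for 50% growth inhibition is given as GI50. TGI is the concentration that stops growth completely.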

Tests used:
Experiment in all cases: growth of human tumour cells (NCI), 48 h
CCRF-CEM leukemia = test system: CCRF-CEM leukemia
IGROV1 ovarian = test system: IGROV1 ovarian
KM12 colon = test system: KM12 colon
MDA-MB-231 breast = test system: MDA-MB-231 breast
NCI-H23 lung = test system: NCI-H23 lung
SK-MEL-2 melanoma = test system: SK-MEL-2 melanoma
SK-MEL-28 melanoma = test system: SK-MEL-28 melanoma
SK-MEL-5 melanoma = test system: SK-MEL-5 melanoma
U251 CNS = test system: U251 CNS
UACC-257 melanoma = test system: UACC-257 melanoma

Row | Structure (SMILES) | GI50 (CCRF-CEM leukemia) | TGI (CCRF-CEM leukemia) | GI50 (IGROV1 ovarian) | TGI (IGROV1 ovarian) | GI50 (KM12 colon) | TGI (KM12 colon) | GI50 (MDA-MB-231 breast) | TGI (MDA-MB-231 breast) | GI50 (NCI-H23 lung) | TGI (NCI-H23 lung) | GI50 (SK-MEL-2 melanoma) | TGI (SK-MEL-2 melanoma) | GI50 (SK-MEL-28 melanoma) | TGI (SK-MEL-28 melanoma) | GI50 (SK-MEL-5 melanoma) | TGI (SK-MEL-5 melanoma) | GI50 (U251 CNS) | TGI (U251 CNS) | GI50 (UACC-257 melanoma) | TGI (UACC-257 melanoma)
1 | C[C@H]1[C@H](C)CC[C@]2(C(=O)O)CC[C@]3(C)C(=CC[C@@H]4[C@@]5(C)CC[C@H](OC(=O)/C=C/c6ccc(O)cc6)C(C)(C)[C@@H]5CC[C@]43C)[C@H]12 | 5000 nM | > 40.4 µM | 8390 nM | 45.8 µM | 1090 nM | 9.97 µM | 5100 nM | 18.3 µM | 3110 nM | 8.36 µM | 13500 nM | 50.1 µM | 19100 nM | > 74.5 µM | 4910 nM | 14.9 µM | 6540 nM | 17.2 µM | 12100 nM | 51.5 µM
2 | Nc1nc(N)c2c(ccc3nccc32)[nH]1 | 1570 nM | > 100 µM | 2340 nM | 9.35 µM | 5050 nM | 27.1 µM | 13500 nM | 50 µM | 6460 nM | > 100 µM | 10100 nM | 37.1 µM | 14700 nM | > 93.8 µM | 2280 nM | > 33.9 µM | 3220 nM | > 69.5 µM | 1540 nM | 17.9 µM
3 | CCOC(=O)Cn1c(C)c(/C=N/NC(=O)c2cc3c(ccc4ccccc43)o2)c2ccccc21 | 410 nM | > 100 µM | 527 nM | 3.47 µM | 306 nM | 1.52 µM | 702 nM | 3.33 µM | 669 nM | 6.91 µM | 770 nM | 7.05 µM | 1660 nM | 30.5 µM | 381 nM | 1.71 µM | 426 nM | 4.17 µM | 2380 nM | > 30.4 µM
4 | CC1(C)CC(OCCCC[P+](c2ccccc2)(c2ccccc2)c2ccccc2)CC(C)(C)N1O | 246 nM | 1.52 µM | 477 nM | 2.02 µM | 284 nM | 0.966 µM | 252 nM | 0.832 µM | 254 nM | 1.95 µM | 272 nM | 0.641 µM | 628 nM | 2.02 µM | 163 nM | 0.358 µM | 247 nM | 1.54 µM | 307 nM | 0.977 µM
5 | Cc1cccc(NC(=O)CCl)c1 | – | 8.83 µM | – | > 10 µM | – | > 10 µM | – | > 10 µM | – | > 10 µM | – | > 10 µM | – | > 10 µM | – | > 10 µM | – | 5.64 µM | – | > 10 µM
6 | C#C[C@@]1(O)[C@@H](CO)O[C@@H](n2ccc3c(N)ncnc32)[C@@H]1O | 2300 nM | > 100 µM | 1430 nM | 5.85 µM | 1820 nM | 10.9 µM | 1530 nM | 5.89 µM | 1180 nM | 4.32 µM | 1370 nM | 6.32 µM | 3990 nM | 20.2 µM | 1560 nM | 2.96 µM | 2440 nM | 11.8 µM | 2310 nM | 7.06 µM
7 | CC1(O)CC2(O)C=CC3=C(C(=O)c4cccc(O)c4C3=O)C2(O)C(=O)C1O (stereo not given) | – | 2.87 µM | – | 10.6 µM | – | 17.8 µM | – | 11.8 µM | – | 10.7 µM | – | 9.07 µM | – | 3.2 µM | – | 7.58 µM | – | 9.81 µM | – | 2.67 µM
8 | CN(C)C(=O)c1cc2cnc(Nc3ccc(-c4csc5c(=O)cc(N6CCNCC6)oc45)cc3)nc2n1C1CCCC1 | 433 nM | – | 523 nM | 6.12 µM | 345 nM | 1.58 µM | 710 nM | 2.24 µM | 995 nM | 2.93 µM | 2090 nM | 7.14 µM | 2140 nM | 6.88 µM | 1180 nM | 2.51 µM | 561 nM | 1.96 µM | 5280 nM | 22.9 µM
9 | CN1CCN(Cc2ccc(NC(=O)c3nc4ccc5[nH]ncc5c4c4c3CCC4)cc2C(F)(F)F)CC1 | 1250 nM | 3.64 µM | 907 nM | 1.7 µM | 957 nM | 1.91 µM | 924 nM | 1.68 µM | 1070 nM | 3.22 µM | 1160 nM | 2.49 µM | 899 nM | 1.62 µM | 7470 nM | 14.1 µM | 875 nM | 1.6 µM | 990 nM | 2.01 µM
10 | O=C(NNc1ccccc1)OCc1ccccc1 | 3940 nM | > 100 µM | 15200 nM | > 100 µM | 3920 nM | > 100 µM | 11300 nM | > 100 µM | 69500 nM | > 100 µM | 15700 nM | > 100 µM | 98300 nM | > 100 µM | 16800 nM | > 100 µM | 70600 nM | > 100 µM | 18500 nM | > 100 µM
11 | CC[N+]1(C)CCC(O)(c2ccccc2)C(C(=O)c2ccccc2)C1 (stereo not given) | – | 6.89 µM | – | 38.6 µM | – | 39.3 µM | – | 42.7 µM | – | 40.8 µM | – | 37.7 µM | – | 30.9 µM | – | 33.6 µM | – | 43.2 µM | – | 32.7 µM
12 | CC1(C)CC(=O)c2c(ccc(C(=O)C[C@H](N)CO)c2N)O1 | – | 17.5 µM and > 33.3 µM | 3090 nM | 17.5 µM | 1230 nM and 189 nM | 17.5 µM and > 33.3 µM | > 17500 nM | > 17.5 µM | 6420 nM and 733 nM | 17.5 µM and > 33.3 µM | 12500 nM and 5200 nM | 17.5 µM and > 33.3 µM | – | 17.5 µM and > 33.3 µM | 2870 nM and 5080 nM | 17.5 µM and > 33.3 µM | 1470 nM and 247 nM | 17.5 µM and > 33.3 µM | 20300 nM | > 33.3 µM
13 | COc1ccc2[nH]c(=O)c(/C=C/C(=O)/C=C/c3ccc(O)c(OC)c3)cc2c1 | 2060 nM | > 100 µM | 1770 nM | 4.24 µM | 1080 nM | 2.66 µM | 1920 nM | 3.78 µM | 2040 nM | 4.88 µM | 2470 nM | 6.24 µM | 1690 nM | 3.25 µM | 1770 nM | 3.27 µM | 1170 nM | 2.68 µM | 1580 nM | 3.09 µM
14 | O=C(O)c1ccc(NCc2nc3cc4ccccc4cc3[nH]2)cc1 | – | > 100 µM | – | > 100 µM | – | > 100 µM | – | > 100 µM | – | > 100 µM | – | > 86.3 µM | – | > 85.2 µM | – | > 72.7 µM | – | > 100 µM | – | 25.9 µM
15 | C/C(=N\NC(=O)c1ccccc1O)c1cccc(/C(C)=N/NC(=O)c2ccccc2O)n1 | 693 nM | 48.8 µM | 2400 nM and 15400 nM | 43.8 µM and > 100 µM | 456 nM | > 100 µM | 10600 nM | > 100 µM | 16000 nM and 1730 nM | 63.8 µM and > 100 µM | – | 38.9 µM and > 100 µM | 24400 nM and > 100000 nM | > 100 µM | 621 nM | 44.9 µM and > 48 µM | 2020 nM and 502 nM | 15.8 µM and > 100 µM | 16500 nM and > 100000 nM | > 100 µM
16 | Nc1ncnc2c(C3OC(CO)C(O)C3O)[nH]nc12 (stereo not given) | 4680 nM and 2770 nM | 73.9 µM | – | 8.6 µM | 76 nM | 8.13 µM and 14.3 µM | 21.8 nM | 0.0705 µM | 659 nM | 10.5 µM and 16.4 µM | 50.7 nM | 0.739 µM and 0.5 µM | 2640 nM and 1690 nM | 30.6 µM and 25.4 µM | 984 nM | 10.9 µM and 7.47 µM | 1390 nM | 25.4 µM | 1450 nM and 2100 nM | 10.2 µM and 26.6 µM
